Where “and” joins values, the source holds several entries; their conditions need not be identical. Identical values can stand only once. Toxic doses and inconclusive results are not listed.
Tested on: L1210 leukemia ip in BDF1 mice, survival T/C
Experiment: NCI In Vivo Anticancer Drug Screen. Data for tumor model L1210 Leukemia (intraperitoneal) in B6D2F1 (BDF1) mice
Conditions: endpoint: mean survival time, higher = longer survival
Procedure, shortened: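 In this screen, tumor-bearing mice given compound are compared to those given vehicle, and their survival values are reported as a treated-to-control quotient.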

[1] = dose: 100.0 mg/kg/injection, schedule: Q04DX002 (ip), vehicle: saline with Tween-80
[2] = dose: 200.0 mg/kg/injection, schedule: Q04DX002 (ip), vehicle: saline with Tween-80
[3] = dose: 400.0 mg/kg/injection, schedule: Q04DX002 (ip), vehicle: saline with Tween-80

In the case of `CCOC(=O)c1c(NC(=O)C(F)(F)F)[nH]c(SSc2[nH]c(NC(=O)C(F)(F)F)c(C(=O)OCC)c2C(=O)OCC)c1C(=O)OCC`, the T/C (dose: 25.0 mg/kg/injection, schedule: Q01DX009 (ip), vehicle: saline with Tween-80) is reported as 97 % of control, the T/C (dose: 50.0 mg/kg/injection, schedule: Q01DX009 (ip), vehicle: saline with Tween-80) is reported as 102 % of control and the T/C (dose: 100.0 mg/kg/injection, schedule: Q01DX009 (ip), vehicle: saline with Tween-80) is reported as 97 % of control. For the same compound, the T/C (dose: 100.0 mg/kg/injection, schedule: Q04DX003 (ip), vehicle: saline with Tween-80) was 105 % of control and the T/C (dose: 200.0 mg/kg/injection, schedule: Q04DX003 (ip), vehicle: saline with Tween-80) was 86 % of control.
In the case of `CC(C)(C)Sc1nc2ccccc2s1`, the T/C (dose: 25.0 mg/kg/injection, schedule: Q04DX002 (ip), vehicle: saline with Tween-80) is reported as 93 % of control, the T/C (dose: 50.0 mg/kg/injection, schedule: Q04DX002 (ip), vehicle: saline with Tween-80) is reported as 93 % of control and the T/C [1] is reported as 96 % of control. The T/C [2] was 105 % of control and 119 % of control and the T/C [3] was 107 % of control.
In the case of `CNC(=O)O[C@H]1CC[C@@]2(C)C(=CC[C@H]3[C@@H]4CC[C@H]([C@H](C)CCCC(C)C)[C@@]4(C)CC[C@@H]32)C1`, the T/C (dose: 100.0 mg/kg/injection, schedule: Q01DX001 (sc), vehicle: steriod suspending solution) is reported as 87 % of control, the T/C (dose: 200.0 mg/kg/injection, schedule: Q01DX001 (sc), vehicle: steriod suspending solution) is reported as 97 % of control and the T/C (dose: 400.0 mg/kg/injection, schedule: Q01DX001 (sc), vehicle: steriod suspending solution) is reported as 92 % of control.
`CN(Cc1cnc2nc(N)nc(N)c2n1)c1ccc(C(=O)NC(CCC(=O)NCC(=O)O)C(=O)O)cc1` (stereo unspecified) was tested, and the T/C (dose: 5.0 mg/kg/injection, schedule: Q01DX009 (ip), vehicle: sodium bicarbonate) was 174 % of control and the T/C (dose: 10.0 mg/kg/injection, schedule: Q01DX009 (ip), vehicle: sodium bicarbonate) was 161 % of control.
With `NC(=O)C1CCC(=O)N1` (stereo unspecified) the T/C (dose: 100.0 mg/kg/injection, schedule: Q01DX009 (ip), vehicle: saline) was 93 % of control, the T/C (dose: 100.0 mg/kg/injection, schedule: Q04DX002 (ip), vehicle: saline) was 104 % of control and the T/C (dose: 200.0 mg/kg/injection, schedule: Q01DX009 (ip), vehicle: saline) was 101 % of control. For the same compound, the T/C (dose: 200.0 mg/kg/injection, schedule: Q04DX002 (ip), vehicle: saline) was 98 % of control, the T/C (dose: 400.0 mg/kg/injection, schedule: Q01DX009 (ip), vehicle: saline) was 93 % of control and the T/C (dose: 400.0 mg/kg/injection, schedule: Q04DX002 (ip), vehicle: saline) was 91 % of control.
With `CC1CC(C)(C)NC(=S)O1` (stereo unspecified) the T/C (dose: 15.0 mg/kg/injection, schedule: Q01DX001 (ip), vehicle: carboxymethylcellulose (CMC)) was 101 % of control and the T/C (dose: 30.0 mg/kg/injection, schedule: Q01DX001 (ip), vehicle: carboxymethylcellulose (CMC)) was 102 % of control.
`CN1CC(C)(C)C(=O)N1` was tested, and the T/C (dose: 25.0 mg/kg/injection, schedule: Q01DX001 (ip), vehicle: saline) was 97 % of control, the T/C (dose: 50.0 mg/kg/injection, schedule: Q01DX001 (ip), vehicle: saline) was 100 % of control and the T/C (dose: 100.0 mg/kg/injection, schedule: Q01DX001 (ip), vehicle: saline) was 108 % of control. For the same compound, the T/C (dose: 200.0 mg/kg/injection, schedule: Q01DX001 (ip), vehicle: saline) was 86 % of control.
`CSC(=O)C(C)(C)C` was tested, and the T/C (dose: 75.0 mg/kg/injection, schedule: Q01DX001 (ip), vehicle: saline) was 103 % of control and the T/C (dose: 150.0 mg/kg/injection, schedule: Q01DX001 (ip), vehicle: saline) was 97 % of control.
In the case of `CC(=O)Nc1ccc(C=NCCN=Cc2ccc(NC(C)=O)cc2)cc1`, the T/C (dose: 100.0 mg/kg/injection, schedule: Q04DX003 (ip), vehicle: Klucel (hydroxypropylcellulose) (HPC)) is reported as 97 % of control, the T/C (dose: 200.0 mg/kg/injection, schedule: Q04DX003 (ip), vehicle: Klucel (hydroxypropylcellulose) (HPC)) is reported as 88 % of control and the T/C (dose: 400.0 mg/kg/injection, schedule: Q04DX003 (ip), vehicle: Klucel (hydroxypropylcellulose) (HPC)) is reported as 88 % of control.
With `[B-][N+](C)(C)C` the T/C (dose: 3.13 mg/kg/injection, schedule: Q01DX001 (ip), vehicle: Klucel (hydroxypropylcellulose) (HPC)) was 99 % of control, the T/C (dose: 6.25 mg/kg/injection, schedule: Q01DX001 (ip), vehicle: Klucel (hydroxypropylcellulose) (HPC)) was 101 % of control and the T/C (dose: 12.5 mg/kg/injection, schedule: Q01DX001 (ip), vehicle: Klucel (hydroxypropylcellulose) (HPC)) was 99 % of control. The T/C (dose: 25.0 mg/kg/injection, schedule: Q01DX001 (ip), vehicle: Klucel (hydroxypropylcellulose) (HPC)) was 106 % of control, the T/C (dose: 50.0 mg/kg/injection, schedule: Q01DX001 (ip), vehicle: Klucel (hydroxypropylcellulose) (HPC)) was 109 % of control and the T/C (dose: 100.0 mg/kg/injection, schedule: Q01DX001 (ip), vehicle: Klucel (hydroxypropylcellulose) (HPC)) was 103 % of control.
In the case of `COC1CCC(/C=C(\C#N)C2CCC(C)CC2)CC1` (stereo unspecified), the T/C [1] is reported as 94 % of control, the T/C [2] is reported as 97 % of control and the T/C [3] is reported as 94 % of control.

Reference: PubChem BioAssay AID248 (DTP/NCI, 2004)
